From ChEMBL document CHEMBL3112477, “Rat intestinal sucrase inhibition of constituents from the roots of Rosa rugosa Thunb” (Bioorg Med Chem Lett, 2014)
pIC50: −log10 of the molar value.

Experiments:
[1] = target: Sucrase-isomaltase, intestinal (Rattus norvegicus) (UniProt P23739); assay: Inhibition of rat intestinal sucrase using p-nitrophenyl-alpha-d-glucopyranoside as substrate at 1 mM incubated for 10 mins prior to substrate addition measured after 5 mins by spectrophotometry
[2] = target: Sucrase-isomaltase, intestinal (Rattus norvegicus, UniProt P23739); assay: Inhibition of rat intestinal sucrase using p-nitrophenyl-alpha-d-glucopyranoside as substrate incubated for 10 mins prior to substrate addition measured after 5 mins by spectrophotometry
Chain of Sucrase-isomaltase, intestinal (P23739 1-1013 limits assumed): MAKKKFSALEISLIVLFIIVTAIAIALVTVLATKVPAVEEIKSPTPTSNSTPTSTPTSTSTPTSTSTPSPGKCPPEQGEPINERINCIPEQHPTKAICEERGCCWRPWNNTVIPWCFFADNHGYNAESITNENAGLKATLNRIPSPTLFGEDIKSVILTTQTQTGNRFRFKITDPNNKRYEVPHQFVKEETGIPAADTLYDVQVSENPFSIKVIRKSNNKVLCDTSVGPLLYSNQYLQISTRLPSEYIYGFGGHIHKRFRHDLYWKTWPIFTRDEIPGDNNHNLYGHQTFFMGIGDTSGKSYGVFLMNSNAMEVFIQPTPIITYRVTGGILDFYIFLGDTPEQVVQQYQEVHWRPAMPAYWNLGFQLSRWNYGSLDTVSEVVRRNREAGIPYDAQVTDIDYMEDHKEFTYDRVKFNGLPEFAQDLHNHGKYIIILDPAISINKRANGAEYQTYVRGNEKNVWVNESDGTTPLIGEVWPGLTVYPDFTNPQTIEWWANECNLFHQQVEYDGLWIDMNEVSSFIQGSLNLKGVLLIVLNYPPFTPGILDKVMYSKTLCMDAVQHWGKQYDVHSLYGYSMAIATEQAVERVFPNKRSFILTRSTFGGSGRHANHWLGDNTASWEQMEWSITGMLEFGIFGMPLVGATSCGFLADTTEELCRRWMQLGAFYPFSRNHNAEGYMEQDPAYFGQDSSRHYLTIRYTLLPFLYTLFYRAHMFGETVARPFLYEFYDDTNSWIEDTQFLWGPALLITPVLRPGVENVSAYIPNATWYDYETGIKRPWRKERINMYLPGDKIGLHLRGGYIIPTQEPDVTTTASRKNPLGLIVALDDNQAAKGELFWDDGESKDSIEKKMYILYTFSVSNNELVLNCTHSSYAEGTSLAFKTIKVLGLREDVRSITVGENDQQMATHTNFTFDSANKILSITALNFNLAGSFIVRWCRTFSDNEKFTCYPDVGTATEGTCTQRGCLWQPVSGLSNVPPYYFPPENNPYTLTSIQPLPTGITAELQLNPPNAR
Chain of Sucrase-isomaltase, intestinal (P23739 1014-1841 limits assumed): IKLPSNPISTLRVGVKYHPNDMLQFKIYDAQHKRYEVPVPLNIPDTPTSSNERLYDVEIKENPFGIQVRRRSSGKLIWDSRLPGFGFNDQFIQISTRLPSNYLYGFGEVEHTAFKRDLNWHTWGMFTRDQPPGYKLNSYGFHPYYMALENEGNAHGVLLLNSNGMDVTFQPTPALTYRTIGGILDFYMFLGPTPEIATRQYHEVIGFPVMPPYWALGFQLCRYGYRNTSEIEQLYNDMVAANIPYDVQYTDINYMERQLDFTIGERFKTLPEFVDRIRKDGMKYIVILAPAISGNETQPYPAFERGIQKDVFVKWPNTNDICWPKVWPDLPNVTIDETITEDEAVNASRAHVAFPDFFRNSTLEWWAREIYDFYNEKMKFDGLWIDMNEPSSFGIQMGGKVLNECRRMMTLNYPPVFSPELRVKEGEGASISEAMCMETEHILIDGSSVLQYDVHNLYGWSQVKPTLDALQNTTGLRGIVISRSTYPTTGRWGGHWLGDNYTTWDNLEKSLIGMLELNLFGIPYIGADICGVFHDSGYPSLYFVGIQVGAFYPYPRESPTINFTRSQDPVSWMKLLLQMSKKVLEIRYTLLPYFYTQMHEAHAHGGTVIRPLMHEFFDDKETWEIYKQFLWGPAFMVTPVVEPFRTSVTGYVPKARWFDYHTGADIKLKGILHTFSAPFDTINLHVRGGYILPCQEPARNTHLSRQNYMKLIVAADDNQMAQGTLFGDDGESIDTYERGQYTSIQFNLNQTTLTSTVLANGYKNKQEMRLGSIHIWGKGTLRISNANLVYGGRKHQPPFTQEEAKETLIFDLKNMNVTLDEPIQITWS

Chain of Sucrase-isomaltase, intestinal (Rattus norvegicus) (P23739 1-1013 limits assumed): as the sequence (P23739 1-1013 limits assumed) above
Chain of Sucrase-isomaltase, intestinal (Rattus norvegicus) (P23739 1014-1841 limits assumed): as the sequence (P23739 1014-1841 limits assumed) above

| Compound | inhibition [1] [%] | pIC50 [2] |
| --- | --- | --- |
| C[C@@H]1CC[C@]2(C(=O)O)CC[C@]3(C)C(=CC[C@@H]4[C@@]5(C)C=C(O)C(=O)C(C)(C)[C@@H]5CC[C@]43C)[C@@H]2[C@]1(C)O | < 10 |  |
| Oc1ccc([C@H]2Oc3cc(O)ccc3[C@H](c3c(O)cc(O)c4c3O[C@H](c3ccc(O)c(O)c3)[C@H](O)C4)[C@H]2O)cc1 | 68.4 | 3.32 |
| C[C@H]1[C@H](C)CC[C@]2(C(=O)O)CC[C@]3(C)C(=CC[C@@H]4[C@@]5(C)CC[C@H](O)C(C)(C)[C@@H]5CC[C@]43C)[C@H]12 [URSOLIC ACID] | 32 | < 3.00 |
| C[C@H]1O[C@H](O[C@H]2[C@H](O)[C@@H](O)[C@@H](O[C@H]3[C@H](O)[C@@H](O)C(O)O[C@@H]3CO)O[C@@H]2CO)[C@H](O)[C@@H](O)[C@@H]1N[C@H]1C=C(CO)[C@@H](O)[C@H](O)[C@H]1O (some centres not stated) | 51 |  |
| CC1=CC(=O)CC(C)(C)[C@H]1/C=C/[C@@H](C)O[C@@H]1O[C@H](CO)[C@@H](O)[C@H](O)[C@H]1O | 12.5 | < 3.00 |
| CC1(C)C=C(C=O)[C@]2(C)[C@H]3CC=C4[C@@H]5[C@H](O)C(C)(C)CC[C@]5(C(=O)O)CC[C@@]4(C)[C@]3(C)CC[C@@H]12 | 32.4 | < 3.00 |
| Oc1cc(O)c2c(c1)O[C@@]1(c3ccc(O)c(O)c3)Oc3cc(O)c4c(c3[C@@H]2[C@H]1O)O[C@@H](c1ccc(O)c(O)c1)[C@H](O)[C@H]4c1c(O)cc(O)c2c1O[C@H](c1ccc(O)c(O)c1)[C@H](O)C2 [AESCULTITANNIN B] | 66.8 | 3.40 |
| Oc1ccc([C@@H]2Oc3cc(O)ccc3[C@H](c3c(O)cc(O)c4c3O[C@H](c3ccc(O)c(O)c3)[C@H](O)C4)[C@H]2O)cc1 | 84.7 | 3.60 |
| CC1(C)[C@@H](O)CC[C@]2(C)[C@H]3CC[C@@H]4C=C[C@H](O)[C@@]4(C)[C@]3(C)CC[C@@H]12 | 40 | < 3.00 |
| Oc1cc(O)c2c(c1)O[C@H](c1ccc(O)c(O)c1)[C@@H](O)C2 [CIANIDANOL] | 80 | 3.51 |
| Oc1cc(O)c2c(c1)O[C@H](c1ccc(O)c(O)c1)[C@@H](O)[C@@H]2c1c(O)cc(O)c2c1O[C@H](c1ccc(O)c(O)c1)[C@@H](O)C2 | 76 | 3.37 |
| Oc1cc(O)c2c(c1)O[C@H](c1ccc(O)c(O)c1)[C@H](O)C2 [(-)-EPICATECHIN] | 61.9 | 3.19 |
| Oc1ccc2c(c1)O[C@H](c1ccc(O)c(O)c1)[C@@H](O)[C@@H]2c1c(O)cc2c(c1O)C[C@H](O)[C@@H](c1ccc(O)c(O)c1)O2 | 72.2 | 3.28 |
| C[C@@H]1CC[C@]2(C(=O)O)CC[C@]3(C)C(=CC[C@@H]4[C@@]5(C)CC(=O)[C@H](O)C(C)(C)[C@@H]5CC[C@]43C)[C@@H]2[C@]1(C)O | < 10 |  |
| CC1=CC(=O)CC(C)(C)[C@H]1/C=C/[C@H](C)O[C@@H]1O[C@H](CO)[C@@H](O)[C@H](O)[C@H]1O | 14 | < 3.00 |
| C=C(C)[C@@H]1CC[C@]2(C(=O)O)CC[C@]3(C)[C@H](CC[C@@H]4[C@@]5(C)CC[C@H](O)C(C)(C)[C@@H]5CC[C@]43C)[C@@H]12 | < 10 |  |
| CC1=CC(=O)CC(C)(C)/C1=C/CC(C)O[C@@H]1O[C@H](CO)[C@@H](O)[C@H](O)[C@H]1O (some centres not stated) | 28.3 | < 3.00 |
| CC1=CC(=O)CC(C)(C)/C1=C\CC(C)O[C@@H]1O[C@H](CO)[C@@H](O)[C@H](O)[C@H]1O (some centres not stated) | 28.6 | < 3.00 |
